Measurements published in BindingDB's records for doi:10.7270/Q2TX3CTT (Broad Institute, 2010).

Biological target: Glycogen synthase kinase-3 beta (Homo sapiens, UniProt P49841)
Assay: GSK3beta kinase inhibitor potency, dose response, biochemical, luminescence, cell-free homogeneous, retest (AID 434954)

Sequence of Glycogen synthase kinase-3 beta (P49841 whole entry): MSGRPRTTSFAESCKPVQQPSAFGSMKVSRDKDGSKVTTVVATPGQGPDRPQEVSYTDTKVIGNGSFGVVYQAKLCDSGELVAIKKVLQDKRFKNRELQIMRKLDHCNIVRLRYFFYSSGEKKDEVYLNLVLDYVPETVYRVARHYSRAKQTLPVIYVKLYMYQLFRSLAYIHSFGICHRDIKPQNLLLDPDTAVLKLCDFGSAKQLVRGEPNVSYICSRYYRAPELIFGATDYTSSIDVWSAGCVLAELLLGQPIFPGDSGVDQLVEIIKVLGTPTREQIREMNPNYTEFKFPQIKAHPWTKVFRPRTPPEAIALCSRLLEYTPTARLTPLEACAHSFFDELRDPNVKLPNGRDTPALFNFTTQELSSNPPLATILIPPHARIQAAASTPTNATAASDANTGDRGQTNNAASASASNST

Cc1[nH]nc2c1C(c1cccs1)C1C(=O)CC(C)(C)CC1=N2 (stereo unspecified) [3,7,7-trimethyl-4-thiophen-2-yl-2,4,6,8-tetrahydro-1H-pyrazolo[3,4-b]quinolin-5-one]
EC50: 1.36 µM

Cc1ccc2c(c1)NC(c1cccs1)C1C(=O)CC(C)(C)CC1=N2 (stereo unspecified) [3,9,9-trimethyl-6-thiophen-2-yl-6,8,10,11-tetrahydro-5H-benzo[b][1,4]benzodiazepin-7-one]
EC50: > 300 µM

CC1(C)CC(=O)C=C(Nc2ccc3c(c2)OCCO3)C1 [3-(2,3-dihydro-1,4-benzodioxin-6-ylamino)-5,5-dimethyl-1-cyclohex-2-enone]
EC50: > 300 µM

COc1cccc(C(CC(=O)NCc2ccco2)NS(=O)(=O)c2ccc(C)cc2)c1OC (stereo unspecified) [3-(2,3-dimethoxyphenyl)-N-(2-furylmethyl)-3-{[(4-methylphenyl)sulfonyl]amino}propanamide]
EC50: > 300 µM

O=c1[nH]c2ccccc2c(=O)n1-c1ccc(Cl)cc1Cl [3-(2,4-dichlorophenyl)quinazoline-2,4(1H,3H)-dione]
EC50: > 300 µM

COc1ccc(OC)c(C(=O)c2coc3ccc(OC(C)=O)cc23)c1 [3-(2,5-dimethoxybenzoyl)-1-benzofuran-5-yl acetate]
EC50: > 300 µM

N#CCCSc1nc(N2CCOCC2)c2c(c1C#N)CCCC2 [3-(2-cyanoethylthio)-1-(4-morpholinyl)-5,6,7,8-tetrahydroisoquinoline-4-carbonitrile]
EC50: 9.29 µM

Cc1ccc(NC2=CC(=O)CC(C)(C)C2)cc1C [3-(3,4-dimethylanilino)-5,5-dimethyl-1-cyclohex-2-enone]
EC50: > 300 µM

Cc1coc2cc3oc(=O)c(CCC(=O)NCCCN4CCCC4=O)c(C)c3cc12 [3-(3,5-dimethyl-7-oxo-6-furo[3,2-g][1]benzopyranyl)-N-[3-(2-oxo-1-pyrrolidinyl)propyl]propanamide]
EC50: > 300 µM

CC1CN(C(=O)CCc2cc(C(C)(C)C)c(O)c(C(C)(C)C)c2)CC(C)O1 (stereo unspecified) [3-(3,5-ditert-butyl-4-hydroxyphenyl)-1-(2,6-dimethyl-4-morpholinyl)-1-propanone]
EC50: > 300 µM

Nn1c(SCc2cccc(Br)c2)nnc1-c1ccncc1 [3-(3-Bromo-benzylsulfanyl)-5-pyridin-4-yl-[1,2,4]triazol-4-ylamine]
EC50: > 300 µM

Cc1c(Cl)cccc1NC(=S)N(C)CCC#N [3-(3-chloro-2-methylphenyl)-1-(2-cyanoethyl)-1-methylthiourea]
EC50: > 300 µM

Cn1nc(-c2ccc(Cl)cc2)nc2c(=O)n(C)c(=O)nc1-2 [3-(4-Chloro-phenyl)-1,6-dimethyl-1H-pyrimido[5,4-e][1,2,4]triazine-5,7-dione]
EC50: 24 µM

O=C(CCS(=O)(=O)c1ccc(Br)cc1)Nc1ccc(Cl)cc1F [3-(4-bromophenyl)sulfonyl-N-(4-chloranyl-2-fluoranyl-phenyl)propanamide]
EC50: > 300 µM

O=Cc1cn(-c2ccccc2)nc1-c1ccc(F)cc1 [3-(4-fluorophenyl)-1-phenyl-1H-pyrazole-4-carbaldehyde]
EC50: > 300 µM

COc1ccc(CNCCC(c2ccc(F)cc2)c2ccc(OC)cc2)cc1 (stereo unspecified) [3-(4-fluorophenyl)-3-(4-methoxyphenyl)-N-[(4-methoxyphenyl)methyl]propan-1-amine]
EC50: > 300 µM

O=Cc1cn(CCC(=O)O)nc1-c1cccc2ccccc12 [3-(4-formyl-3-naphthalen-1-ylpyrazol-1-yl)propanoic acid]
EC50: > 300 µM

COc1ccc(-c2nn(-c3ccccc3)cc2C#N)cc1 [3-(4-methoxyphenyl)-1-phenyl-4-pyrazolecarbonitrile]
EC50: > 300 µM

COc1ccc(-c2nn(-c3ccccc3)cc2CN=O)cc1 [3-(4-methoxyphenyl)-1-phenyl-4-pyrazolecarboxaldehyde oxime]
EC50: 0.432 µM

COc1ccc(-c2nn(-c3ccccc3)cc2N)cc1 [3-(4-methoxyphenyl)-1-phenylpyrazol-4-amine]
EC50: > 300 µM

COc1ccc(-c2noc(CSc3nnc(-c4ccccc4)n3C)n2)cc1 [3-(4-methoxyphenyl)-5-[(4-methyl-5-phenyl-1,2,4-triazol-3-yl)sulfanylmethyl]-1,2,4-oxadiazole]
EC50: > 300 µM

COc1ccc(-c2nnc3ccc(SCc4ccccc4)nn23)cc1 [3-(4-methoxyphenyl)-6-(phenylmethylsulfanyl)-[1,2,4]triazolo[4,3-b]pyridazine]
EC50: 31.7 µM

c1ccc(CSc2nnc(-c3cccnc3)o2)cc1 [3-(5-Benzylsulfanyl-[1,3,4]oxadiazol-2-yl)-pyridine]
EC50: > 300 µM

O=C(CCS(=O)(=O)c1ccccc1)Nc1cccc2c1C(=O)NC2=O [3-(benzenesulfonyl)-N-(1,3-dioxoisoindol-4-yl)propanamide]
EC50: 25.2 µM

O=C1Nc2ccccc2C1=NN1CCOCC1 [3-(morpholin-4-ylamino)indol-2-one]
EC50: > 300 µM

O=C(c1noc2c1CCc1ccccc1-2)N1CCOCC1 [3-(morpholin-4-ylcarbonyl)-4,5-dihydronaphtho[2,1-d]isoxazole]
EC50: > 300 µM

C[C@@H]1O[C@@H](OC[C@H]2O[C@@H](Oc3c(-c4ccc(O)c(O)c4)oc4cc(O)cc(O)c4c3=O)[C@H](O)[C@@H](O)[C@@H]2O)[C@H](O)[C@H](O)[C@H]1O [3-Rhamnoglucosylquercetin]
EC50: 28 µM

CC(c1ccccc1)n1c(CCCO)nc2ccccc21 (stereo unspecified) [3-[1-(1-Phenyl-ethyl)-1H-benzoimidazol-2-yl]-propan-1-ol]
EC50: > 300 µM

COc1ccc(C(C)N2CC34C=CC(O3)C(C(=O)O)C4C2=O)cc1 (stereo unspecified) [3-[1-(4-Methoxy-phenyl)-ethyl]-4-oxo-10-oxa-3-aza-tricyclo[5.2.1.0*1,5*]dec-8-ene-6-carboxylic acid]
EC50: > 300 µM

O=C(CCC1CCN(C(=O)c2cc(C(F)(F)F)ccc2Cl)CC1)NC1CC1 [3-[1-[2-chloro-5-(trifluoromethyl)benzoyl]piperidin-4-yl]-N-cyclopropylpropanamide]
EC50: > 300 µM

COc1cccc2cc(CC(=O)c3ccc(C)cc3C)c(=O)oc12 [3-[2-(2,4-dimethylphenyl)-2-oxoethyl]-8-methoxychromen-2-one]
EC50: > 300 µM

COc1cccc2cc(C(=O)CS(=O)(=O)c3ccc(Cl)cc3)c(=O)oc12 [3-[2-(4-chlorophenyl)sulfonylethanoyl]-8-methoxy-chromen-2-one]
EC50: > 300 µM

CN1CCN(C(=O)Cn2ncc3c([nH]c4ccccc43)c2=O)CC1 [3-[2-(4-methylpiperazin-1-yl)-2-oxidanylidene-ethyl]-2H-pyridazino[4,5-b]indol-4-one]
EC50: > 300 µM

COc1cccc2cc(C(=O)CS(=O)(=O)c3ccc(C(C)(C)C)cc3)c(=O)oc12 [3-[2-(4-tert-butylphenyl)sulfonyl-1-oxoethyl]-8-methoxy-1-benzopyran-2-one]
EC50: > 300 µM

COc1ccc2cc(C(=O)CS(=O)(=O)c3ccccc3)c(=O)oc2c1 [3-[2-(benzenesulfonyl)acetyl]-7-methoxychromen-2-one]
EC50: > 300 µM

O=C(CS(=O)(=O)c1ccccc1)c1cc2ccccc2oc1=O [3-[2-(phenylsulfonyl)ethanoyl]chromen-2-one]
EC50: > 300 µM

Cc1ccc(C)c(N2CCN(C(=O)Cn3ncc4c([nH]c5ccc(C)cc54)c3=O)CC2)c1 [3-[2-[4-(2,5-dimethylphenyl)piperazin-1-yl]-2-oxidanylidene-ethyl]-8-methyl-2H-pyridazino[4,5-b]indol-4-one]
EC50: > 300 µM

COc1ccc(-c2nn(CCC#N)cc2CN=O)cc1OC [3-[3-(3,4-dimethoxyphenyl)-4-(hydroxyiminomethyl)pyrazol-1-yl]propanenitrile]
EC50: > 300 µM

O=C(O)CCn1cc(/C=C\C(=O)c2ccc(Cl)cc2)c(-c2cccc(Br)c2)n1 [3-[3-(3-bromophenyl)-4-[(Z)-3-(4-chlorophenyl)-3-oxoprop-1-enyl]pyrazol-1-yl]propanoic acid]
EC50: > 300 µM

NC(=S)NN=Cc1cn(CCC(=O)O)nc1-c1cccc(Br)c1 [3-[3-(3-bromophenyl)-4-[(carbamothioylhydrazinylidene)methyl]-1-pyrazolyl]propanoic acid]
EC50: > 300 µM

O=Cc1cn(CCC(=O)O)nc1-c1cccc(Br)c1 [3-[3-(3-bromophenyl)-4-formylpyrazol-1-yl]propanoic acid]
EC50: > 300 µM

CCOC(=O)/C(C#N)=C/c1cn(CCC(=O)O)nc1-c1cccc(Cl)c1 [3-[3-(3-chlorophenyl)-4-[(E)-2-cyano-3-ethoxy-3-oxidanylidene-prop-1-enyl]pyrazol-1-yl]propanoic acid]
EC50: > 300 µM

COc1ccc(-c2cc(C(F)(F)F)nc(SCCC(=O)N3CCOCC3)n2)cc1 [3-[4-(4-methoxyphenyl)-6-(trifluoromethyl)pyrimidin-2-yl]sulfanyl-1-morpholin-4-ylpropan-1-one]
EC50: > 300 µM

N#CCCn1cc(CN=O)c(-c2cccc([N+](=O)[O-])c2)n1 [3-[4-(hydroxyiminomethyl)-3-(3-nitrophenyl)pyrazol-1-yl]propanenitrile]
EC50: 50.1 µM

N#CCCn1cc(CN=O)c(-c2ccc(-c3ccccc3)cc2)n1 [3-[4-(hydroxyiminomethyl)-3-(4-phenylphenyl)pyrazol-1-yl]propanenitrile]
EC50: > 300 µM

COc1ccc(-c2nn(CCC(=O)O)cc2/C=C/C(=O)O)cc1[N+](=O)[O-] [3-[4-[(E)-2-carboxyethenyl]-3-(4-methoxy-3-nitrophenyl)pyrazol-1-yl]propanoic acid]
EC50: > 300 µM

CCOC(=O)/C(C#N)=C/c1cn(CCC(=O)O)nc1-c1ccccc1 [3-[4-[(E)-2-cyano-3-ethoxy-3-oxoprop-1-enyl]-3-phenyl-1-pyrazolyl]propanoic acid]
EC50: > 300 µM

COc1ccc(-c2nn(CCC(=O)O)cc2C=NNC(N)=S)cc1 [3-[4-[(carbamothioylhydrazinylidene)methyl]-3-(4-methoxyphenyl)-1-pyrazolyl]propanoic acid]
EC50: > 300 µM

CC1(C)CC(=O)C=C(Nc2cccc(Cl)c2Cl)C1 [3-[(2,3-dichlorophenyl)amino]-5,5-dimethylcyclohex-2-en-1-one]
EC50: > 300 µM

CCn1c(SCc2c(F)cccc2Cl)nnc1-c1ccco1 [3-[(2-chloro-6-fluorophenyl)methylsulfanyl]-4-ethyl-5-(furan-2-yl)-1,2,4-triazole]
EC50: > 300 µM

CC1(C)CC(=O)C=C(Nc2ccccc2O)C1 [3-[(2-hydroxyphenyl)amino]-5,5-dimethyl-cyclohex-2-en-1-one]
EC50: > 300 µM
